In patent US20250257034A1, “INDOLE DERIVATIVES AS SEROTONERGIC AGENTS USEFUL FOR THE TREATMENT OF DISORDERS RELATED THERETO” (priority 2023, published 2025):
Values joined by “and” are separate entries in the source; they are usually repeats but may differ in a detail not shown here. Equal entries are not always repeated. Where two headings read alike, the source gives them in different places.

Tests used:
[1] = Pharmacokinetic studies in rat (i.v.); type: in vivo; settings: rat plasma; for Apparent t1/2 / half-life: estimated from 2 points only; for concentration at 0.25 h / concentration at 1 h / concentration at 4 h / half-life / AUC(0-t): male, Sprague-Dawley, rat, plasma, iv; for concentration at 0.25 h / concentration at 1 h / concentration at 4 h: read-out: Plasma concentration; for half-life: read-out: Apparent t1/2 (converted); for AUC(0-t): read-out: AUC0-tlast
Method: Animals: Male Sprague-Dawley rats (˜225-350 g) from Charles River Labs were acclimatized for a minimum of 5 days prior to start of study procedures. Body weights were recorded on the day of dosing.
Any abnormalities were documented including presence/absence of wet dog shakes/back muscle contractions (WDS/BMC).
Dosing: Formulations were administered intravenously (i.v.) via the tail vein using a 25 G needle connected to a 1 cc syringe.
The Compounds of Formula (I) were freshly prepared at the appropriate concentrations in 5% Tween-80 in saline.
Blood collection time (h): 0.25, 1 and 4.
Volume/time-point: ˜0.25 mL […] (saphenous vein).
Instrumentation: AB Sciex QTRAP 4000 or 6500 MS/MS system equipped with an LC system with a binary pump, a solvent degasser, a thermostatted column compartment and a multiplate autosampler.
Analysis software: Phoenix® WinNonlin® 8.3 (Pharsight, Certara, Mountainview, CA).
Analysis methods: non-compartmental analysis, linear up/log down trapezoidal rule.
PK parameters: t1/2 and AUC0-tlast were be estimated.
Volume/time-point: ˜0.25 mL (saphenous vein).
PK parameters: t1/2 and AUC0-tlast were estimated.

[2] = Rat liver microsomes stability; type: in vitro ADME; settings: Rat liver microsomes; for microsomal CLint at 2 μM / half-life at 2 μM / CLint scaled at 2 μM: male; for microsomal CLint at 2 μM: rat, liver microsomes, read-out: CLint (μL/min/mg protein); for microsomal CLint at 2 μM / half-life at 2 μM: 2 μM compound, 0.5 mg/mL microsomes, 1 mM NADPH; for half-life at 2 μM: 37° C; for CLint scaled at 2 μM: read-out: Scaled-up CLint
In short: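 Parent depletion was measured by LC-MS/MS as peak-area ratio to internal standard. Compounds (2 μM) were incubated at 37° C with liver microsomes of each species and 1 mM NADPH, then sampled to 60 min. Intrinsic clearance in μL/min/mg protein derives from the log-linear slope.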

[3] = Mouse liver microsomes stability; type: in vitro ADME; settings: Mouse liver microsomes; for microsomal CLint at 2 μM / half-life at 2 μM / CLint scaled at 2 μM: male; for microsomal CLint at 2 μM: mouse, liver microsomes, read-out: CLint (μL/min/mg protein); for microsomal CLint at 2 μM / half-life at 2 μM: 2 μM compound, 0.5 mg/mL microsomes, 1 mM NADPH; for half-life at 2 μM: 37° C; for CLint scaled at 2 μM: read-out: Scaled-up CLint
[4] = I-17 1.33 mg/kg i.v., individual rats R07-R09, 1.33 mg/kg
[5] = 1.33 mg/kg, I-17 1.33 mg/kg i.v., Mean ± SD
[6] = 1.33 mg/kg, I-17 1.33 mg/kg i.v., individual rats R07-R09
[7] = I-19 1.2 mg/kg i.v., individual rats R07-R09, 1.2 mg/kg
[8] = 1.2 mg/kg, I-19 1.2 mg/kg i.v., individual rats R07-R09

**Q.** With CSc1ccc2[nH]cc(CCN(C(C)C)C(C)C)c2c1 [Compound I-17, N-Isopropyl-N-(2-(5-(methylthio)-1H-indol-3-yl)ethyl)propan-2-amine] as the molecule, how does the “Plasma concentration” value ([1]; I-17 1.33 mg/kg i.v., 0.25 h, individual rats R07-R09, 1.33 mg/kg) read?
**A.** Its value is 197 ng/mL and 259 ng/mL.

**Q.** What about the “Plasma concentration” value ([1]; I-17 1.33 mg/kg i.v., 1 h, individual rats R07-R09, 1.33 mg/kg) of the same molecule?
**A.** Its value is 89.3 ng/mL and 120 ng/mL.

**Q.** What about the “Plasma concentration” value ([1]; I-17 1.33 mg/kg i.v., 4 h, individual rats R07-R09, 1.33 mg/kg) of the same molecule?
**A.** Its value is 17.7 ng/mL and 15.6 ng/mL.

**Q.** What about the “AUC0-tlast” value [1, 4] of the same molecule?
**A.** The value was 363 ng·h/mL.

**Q.** And the “Apparent t1/2” value [1, 4]?
**A.** Its value is 67.8 min and 57 min.

**Q.** And the concentration at 0.25 h ([1]; 1.33 mg/kg, I-17 1.33 mg/kg i.v., 0.25 h, Mean ± SD)?
**A.** Its concentration at 0.25 h is 198 ± 60 ng/mL.

**Q.** What about the concentration at 0.25 h ([1]; 1.33 mg/kg, I-17 1.33 mg/kg i.v., 0.25 h, individual rats R07-R09) of the same molecule?
**A.** Its concentration at 0.25 h is 139 ng/mL.

**Q.** And the concentration at 1 h ([1]; 1.33 mg/kg, I-17 1.33 mg/kg i.v., 1 h, Mean ± SD)?
**A.** The concentration at 1 h was 103 ± 15.5 ng/mL.

**Q.** What about the concentration at 1 h ([1]; 1.33 mg/kg, I-17 1.33 mg/kg i.v., 1 h, individual rats R07-R09) of the same molecule?
**A.** Its concentration at 1 h is 101 ng/mL.

**Q.** And the concentration at 4 h ([1]; 1.33 mg/kg, I-17 1.33 mg/kg i.v., 4 h, Mean ± SD)?
**A.** Its concentration at 4 h is 19.7 ± 5.39 ng/mL.

**Q.** And the concentration at 4 h ([1]; 1.33 mg/kg, I-17 1.33 mg/kg i.v., 4 h, individual rats R07-R09)?
**A.** The concentration at 4 h was 25.8 ng/mL.

**Q.** And the half-life [1, 5]?
**A.** Its half-life is 72.6 ± 18.1 min.

**Q.** And the AUC(0-t) [1, 5]?
**A.** Its AUC(0-t) is 315 ± 41.4 ng·h/mL.

**Q.** What about the half-life [1, 6] of the same molecule?
**A.** The half-life was 92.4 min.

**Q.** What about the AUC(0-t) [1, 6] of the same molecule?
**A.** Its AUC(0-t) is 291 ng·h/mL.

**Q.** What about the “Predicted hepatic CL” value [2] of the same molecule?
**A.** The value was 30.01 mL/min/kg.

**Q.** And the microsomal CLint at 2 μM [2]?
**A.** Its microsomal CLint at 2 μM is 36.7 µL/min/mg.

**Q.** What about the half-life at 2 μM [2] of the same molecule?
**A.** The half-life at 2 μM was 37.8 min.

**Q.** What about the CLint scaled at 2 μM [2] of the same molecule?
**A.** Its CLint scaled at 2 μM is 65.8 mL/min/kg.

**Q.** And the “Predicted hepatic CL” value [3]?
**A.** Its value is >84.35 mL/min/kg.

**Q.** What about the microsomal CLint at 2 μM [3] of the same molecule?
**A.** Its microsomal CLint at 2 μM is > 307 µL/min/mg.

**Q.** What about the half-life at 2 μM [3] of the same molecule?
**A.** The half-life at 2 μM was < 4.51 min.

**Q.** What about the CLint scaled at 2 μM [3] of the same molecule?
**A.** The CLint scaled at 2 μM was > 1340 mL/min/kg.

**Q.** What does the source list for CSc1ccc2[nH]cc(CCN(C)C(C)C)c2c1 [Compound I-19, N-Methyl-N-(2-(5-(methylthio)-1H-indol-3-yl)ethyl)propan-2-amine]?
**A.** Plasma concentration ([1]; I-19 1.2 mg/kg i.v., 0.25 h, individual rats R07-R09, 1.2 mg/kg): 13.4 ng/mL and 70.3 ng/mL and 84.4 ng/mL; Plasma concentration ([1]; I-19 1.2 mg/kg i.v., 1 h, individual rats R07-R09, 1.2 mg/kg): 34.4 ng/mL and 41.4 ng/mL; Plasma concentration ([1]; I-19 1.2 mg/kg i.v., 4 h, individual rats R07-R09, 1.2 mg/kg): 4.95 ng/mL and 4.34 ng/mL; AUC0-tlast [1, 7]: 103 ng·h/mL and 118 ng·h/mL; Apparent t1/2 [1, 7]: 53.3 min; concentration at 0.25 h ([1]; 1.2 mg/kg, I-19 1.2 mg/kg i.v., 0.25 h, Mean ± SD): 56 ± 37.6 ng/mL; concentration at 1 h ([1]; 1.2 mg/kg, I-19 1.2 mg/kg i.v., 1 h, Mean ± SD): 35.4 ± 5.57 ng/mL; concentration at 1 h ([1]; 1.2 mg/kg, I-19 1.2 mg/kg i.v., 1 h, individual rats R07-R09): 30.4 ng/mL; concentration at 4 h ([1]; 1.2 mg/kg, I-19 1.2 mg/kg i.v., 4 h, Mean ± SD): 5.35 ± 1.26 ng/mL; concentration at 4 h ([1]; 1.2 mg/kg, I-19 1.2 mg/kg i.v., 4 h, individual rats R07-R09): 6.76 ng/mL; AUC(0-t) ([1]; 1.2 mg/kg, I-19 1.2 mg/kg i.v., Mean ± SD): 96.1 ± 26.4 ng·h/mL; half-life [1, 8]: 60 min; AUC(0-t) [1, 8]: 66.9 ng·h/mL; half-life ([1]; 1.2 mg/kg, I-19 1.2 mg/kg i.v., mean (n = 2)): 56.8 min; Predicted hepatic CL [2]: 16.73 mL/min/kg; microsomal CLint at 2 μM [2]: 13.4 µL/min/mg; half-life at 2 μM [2]: 103 min; CLint scaled at 2 μM [2]: 24 mL/min/kg; Predicted hepatic CL [3]: 78.36 mL/min/kg; microsomal CLint at 2 μM [3]: 138 µL/min/mg; half-life at 2 μM [3]: 10 min; CLint scaled at 2 μM [3]: 606 mL/min/kg
